Earlier results as cited in patent US10201174B2, “Process for reducing contaminating Michael acceptor levels in oxycodone and other compositions” (Controlled Chemicals, Inc., priority 2005, dated 2019).

Details: thiol group ionisation, aqueous

Compound | pKSH / pK of the thiol-containing compound
O=C(O)c1cc(S)ccc1[N+](=O)[O-] [5-mercapto-2-nitro-benzoic acid] | 4.8
O=C([O-])CS.[Na+] [sodium thioglycolate] | 10.3
